Experimental data: PubChem BioAssay (NCI)
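Values below derive from 48-hour exposures of cells grown in 96-well plates, with endpoints linearly interpolated between the two concentrations bracketing the appropriate inhibition level. TGI is the concentration that stops growth completely.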

Key:
Experiment in all cases: growth of human tumour cells (NCI), 48 h
[1] = tested on: BT-549 breast
[2] = tested on: COLO 205 colon
[3] = tested on: EKVX NSCLC
[4] = tested on: HS 578T breast
[5] = tested on: KM12 colon
[6] = tested on: NCI-H522 lung
[7] = tested on: OVCAR-3 ovarian
[8] = tested on: OVCAR-8 ovarian
[9] = tested on: PC-3 prostate
[10] = tested on: RXF 393 renal
[11] = tested on: SF-268 CNS
[12] = tested on: SK-MEL-28 melanoma
[13] = tested on: SN12C renal
[14] = tested on: SNB-19 CNS
[15] = tested on: SNB-75 CNS
[16] = tested on: HL-60(TB) leukemia

| SMILES | TGI [1] [µM] | TGI [2] [µM] | TGI [3] [µM] | TGI [4] [µM] | TGI [5] [µM] | TGI [6] [µM] | TGI [7] [µM] | TGI [8] [µM] | TGI [9] [µM] | TGI [10] [µM] | TGI [11] [µM] | TGI [12] [µM] | TGI [13] [µM] | TGI [14] [µM] | TGI [15] [µM] | TGI [16] [µM] |
| --- | --- | --- | --- | --- | --- | --- | --- | --- | --- | --- | --- | --- | --- | --- | --- | --- |
| Cc1c(CN2CCOCC2)c(CN2CCOCC2)c(C)n1-c1ccc(Cl)cn1 | > 100 | > 100 | > 100 | > 100 | > 100 | > 100 | > 100 | > 100 | > 100 | > 100 | > 100 | > 100 | > 100 | > 100 | > 100 |  |
| CC1=CP(=O)(OC(C)C)C=C(C)C1=C(Cl)Cl (stereo not drawn) |  | 35 | > 100 |  | 53.7 | 9.03 | > 100 | > 100 |  | > 100 | > 100 | > 100 | > 100 | > 100 | > 100 | > 100 |
| CN1C(=O)C(O)CC1c1ccccc1F (stereo not drawn) | > 100 | > 100 | > 100 |  | > 100 | > 100 | > 100 | > 100 | > 100 | > 100 |  | > 100 | > 100 | > 100 | > 100 | > 100 |
| Cc1cc(C(O)CCCc2ccccc2)cc(C)c1O (stereo not drawn) |  | > 100 | 75.9 |  | > 100 | > 100 | > 100 | > 100 |  | 60 | > 100 | > 100 | > 100 | 67.2 | 78 | 41.9 |
| Cc1c(N)c(C#N)c2n(C)c3ncccc3n2c1=O |  | > 100 | > 100 |  | > 100 | > 100 | > 100 | > 100 |  | > 100 | > 100 | > 100 | > 100 | > 100 | > 100 | > 100 |
| CCOC(=O)CCCc1cc(=O)c2c(C)c3[nH]c4ccc(Cl)cc4c3c(C)c2[nH]1 | 41.8 | > 100 | > 100 |  | > 100 |  | 34.4 | 59.8 | 70.6 | 27.1 | 54 | > 100 | 95.3 | 60.7 | 64 | 82.3 |
| C[n+]1c(-c2ccc(/C=N\Nc3ccnc(N/N=C/c4ccc(-c5cn6ccsc6[n+]5C)cc4)n3)cc2)cn2ccsc21 |  | 66.6 | 50 | > 100 | 84.5 | > 100 | > 100 | > 100 | > 100 | 56.3 |  |  | > 100 | > 100 | 92.1 | 57.4 |
| Cn1c(=O)oc2cc(C(O)CN3CCN(Cc4ccc5c(c4)OCO5)CC3)ccc21 (stereo not drawn) | > 100 | > 100 | > 100 |  | > 100 | > 100 | > 100 | > 100 | > 100 | > 100 | > 100 | > 100 | > 100 | > 100 | > 100 | > 100 |
| C#CC(O)/C=C/C(O)CCCC(O)CC#CC(O)C#CCCCCC(O)/C=C/CCCCCC(=O)CCCCCCCCCCCCCC(O)C(O)C#CC(=O)O (stereo not drawn) |  | > 25 | > 25 | > 25 | > 25 | 9.83 |  | > 25 | > 25 |  | > 25 | > 25 | > 25 | > 25 | > 25 | > 25 |
| COC1(OC)CCCCCCCCC(OC)(OC)CCCCCCCC1 |  | > 100 | > 100 | > 100 | > 100 | > 100 | > 100 | > 100 | > 100 | > 100 | > 100 | > 100 | > 100 | > 100 | > 100 | > 100 |
| O=C(O)CCC1C(=O)C2CCN1CC2 (stereo not drawn) |  | > 100 | > 100 | > 100 | > 100 | > 100 | > 100 | > 100 | > 100 | > 100 | > 100 | > 100 | > 100 | > 100 | > 100 | > 100 |
| C=C1C(=O)O[C@H]2C(=O)[C@H](C)CCC/C(C)=C/CC[C@@]3(C)O[C@@H]3C[C@@H]12 |  | 3.54 |  | 28.4 | 22.3 | 4.06 | 3.52 | 3.59 | 21.2 |  | 16.4 |  | 18.3 | 24.1 |  | 6.8 |
| CCc1n[nH]c(=O)n1-n1c(C)ccc1C | > 100 | > 100 | > 100 | > 100 | > 100 | > 100 | > 100 | > 100 | > 100 | > 100 | > 100 | > 100 | > 100 | > 100 | > 100 |  |
| COC(=O)c1ccccc1/C=C1\Cc2ccc3c(c2C1=O)CCC3 |  | > 100 | > 100 | > 100 | > 100 | > 100 | > 100 | > 100 | > 100 | > 100 | > 100 | > 100 | > 100 |  | > 100 | > 100 |
| O=C1NC(=S)NC(=O)C1=Cc1ccc([N+](=O)[O-])o1 |  | 38.2 | 42.8 |  | > 100 | 35.1 |  | 66.9 |  | 38.3 | > 100 | 47.7 | 29.8 | > 100 | 31.6 | 87.6 |
| CC(=O)OC1CCn2c1nc1c2C(=O)C=C(N2CC2)C1=O (stereo not drawn) | 2.54 | 0.219 | 2.39 |  |  | 0.124 | 0.546 | 1.57 | 2.52 | 0.241 | 0.784 | 0.147 | 1.86 | 10.8 | 0.479 | 0.494 |
| CNc1ccc(C)cc1S(=O)(=O)c1ccccc1[N+](=O)[O-] | > 100 | > 100 | > 100 | > 100 | > 100 | > 100 | > 100 | > 100 | > 100 | > 100 | > 100 | > 100 | > 100 | > 100 | > 100 |  |

| SMILES | TGI [1] [µM] | TGI [2] [µM] | TGI [3] [µM] | TGI [4] [µM] | TGI [5] [µM] | TGI [6] [µM] | TGI [7] [µM] | TGI [8] [µM] | TGI [9] [µM] | TGI [10] [µM] | TGI [11] [µM] | TGI [12] [µM] | TGI [13] [µM] | TGI [14] [µM] | TGI [15] [µM] | TGI [16] [µM] |
| --- | --- | --- | --- | --- | --- | --- | --- | --- | --- | --- | --- | --- | --- | --- | --- | --- |
| CSc1ccccc1NC1=NCCO1 |  | > 100 | > 100 | > 100 | > 100 | > 100 | > 100 | > 100 | > 100 | > 100 | > 100 | > 100 | > 100 | > 100 |  | > 100 |
| C[Si](C)(C)CCOCN(C(=O)C1=CCC2(CC1)OCCO2)c1ccccc1I |  | > 100 | 29.1 | 44.6 | 38.3 | 38.7 | 38.9 | > 100 | 27 | 35.4 | 41.9 | 42.9 | 70.9 | 37.7 | 34.6 |  |
| C#CCC(O)c1ccc(OC)c(OCc2ccccc2)c1 (stereo not drawn) |  | > 100 | > 100 | > 100 | > 100 | > 100 | > 100 | > 100 | > 100 | > 100 | > 100 | > 100 | > 100 | > 100 | 78.4 | > 100 |
| O=S(=O)(N=[Se](=O)(c1ccccc1)c1ccccc1)c1ccccc1 |  | > 100 | > 100 | > 100 | > 100 | > 100 | > 100 | > 100 | > 100 |  | > 100 | > 100 | > 100 | > 100 | > 100 | 88.1 |
| CC1(C)COC(c2cccc(C(O)c3ccc(Cl)cc3)c2)=N1 (stereo not drawn) |  | 34 | > 100 | > 100 | > 100 | > 100 | 45.7 | 42.3 | 53.8 | 37.8 | 87.3 | > 100 | 73.9 | > 100 | 60.5 | > 100 |
| O=C(N[C@H](CO)[C@H](O)c1ccc([N+](=O)[O-])cc1)C(Cl)Cl | > 100 | > 100 | > 100 |  | > 100 | > 100 | > 100 | > 100 | > 100 | > 100 | > 100 | > 100 | > 100 | > 100 | > 100 | > 100 |
| NN/C(=N\S(=O)(=O)c1cc(S(=O)(=O)c2ccccc2)cs1)Nc1ccc(Cl)cc1 | > 100 | 43.4 | 55.7 |  | 89.6 | 41.3 | 54.2 | > 100 | 69.7 | 53.9 | 89 | > 100 | > 100 | > 100 | 67.2 | 32.7 |
| C=C(C)C1Cc2c(cc3c(c2O)c(=O)c2ccccc2n3C)O1 (stereo not drawn) | 3.28 | 12.3 | 35.3 | 28.7 | 5.75 |  | 27.9 | 5.67 | 19.3 | 8.52 | 14.2 | 24.9 | 7.52 | 12 | 17 |  |
| C#CCNCC(=O)O | > 100 | > 100 | > 100 | > 100 | > 100 | > 100 | > 100 | > 100 | > 100 | > 100 | > 100 | > 100 |  | > 100 |  |  |
| Cc1cc(N(CCC#N)CCC#N)ccc1/C(Sc1ccccc1)=C(\NC(=O)/C=C/c1ccccc1)C(=O)Sc1ccccc1 |  | 7.71 | 54.2 |  | 15.3 | 1.82 | 15.8 | 18.6 |  | 4.5 | 3.81 | 18.5 | 7.29 | 38.2 | 17.7 | 5.08 |
| COc1ccc(NCc2cccc3c(=O)c4ccc(Cl)cc4oc23)cc1 | > 100 | > 100 | > 100 |  | > 100 | > 100 | > 100 | > 100 | > 100 |  |  | > 100 | > 100 |  | > 100 |  |
| [N-]=[N+]=NC1(Cc2ccccc2)C(=O)Nc2ccccc2C1=O (stereo not drawn) |  | > 100 | > 100 |  | > 100 | > 100 | > 100 | > 100 |  |  | > 100 | > 100 | > 100 | > 100 | > 100 | > 100 |
| Cc1ccc(N=NC(=O)NNc2ccc(C)cc2Br)c(Br)c1 | 89.3 |  |  |  |  | 55.3 | 41.2 | 62 | 72.5 |  | 97.2 | 47.4 | 51.2 | > 100 | > 100 | 63 |
| COc1ccc(NC(=O)CSc2nc(C)nc3c2sc(=S)n3-c2ccccc2)cc1 |  | > 10 | > 10 | > 10 | > 10 | > 10 | > 10 | > 10 | > 10 | > 10 | > 10 | > 10 | > 10 | > 10 | 8.21 | > 10 |
| CCOC(=O)/C1=C(\C)N(Cc2ccccc2)C(=O)c2ccccc2C(=O)c2c(OC(C)=O)ccc(OC(C)=O)c21 |  | > 100 | 90.9 | > 100 | > 100 | > 100 | 80.9 | > 100 |  | 93 | > 100 | > 100 | > 100 | > 100 | > 100 | 79.1 |
| COc1cc2c(SCCN(C)C)nc3ccccc3c2c2ccccc12 | 21.7 | 3.75 | 4.08 | 8.61 | 2.69 | 2.79 | 7.79 |  | 8.24 | 4.29 | 5.39 | 3.17 | 6.41 | 8.14 | 8.32 |  |
